Literature values as cited in US20050101642A1, “Chemical complex comprising a pyridine carboxy derivative and an H2 histamine receptor antagonist” (Astion Development ApS, priority 2000, published 2005).

Biological target: poly(ADP-ribose)polymerase (Homo sapiens, UniProt P09874)
Sequence (P09874 whole entry): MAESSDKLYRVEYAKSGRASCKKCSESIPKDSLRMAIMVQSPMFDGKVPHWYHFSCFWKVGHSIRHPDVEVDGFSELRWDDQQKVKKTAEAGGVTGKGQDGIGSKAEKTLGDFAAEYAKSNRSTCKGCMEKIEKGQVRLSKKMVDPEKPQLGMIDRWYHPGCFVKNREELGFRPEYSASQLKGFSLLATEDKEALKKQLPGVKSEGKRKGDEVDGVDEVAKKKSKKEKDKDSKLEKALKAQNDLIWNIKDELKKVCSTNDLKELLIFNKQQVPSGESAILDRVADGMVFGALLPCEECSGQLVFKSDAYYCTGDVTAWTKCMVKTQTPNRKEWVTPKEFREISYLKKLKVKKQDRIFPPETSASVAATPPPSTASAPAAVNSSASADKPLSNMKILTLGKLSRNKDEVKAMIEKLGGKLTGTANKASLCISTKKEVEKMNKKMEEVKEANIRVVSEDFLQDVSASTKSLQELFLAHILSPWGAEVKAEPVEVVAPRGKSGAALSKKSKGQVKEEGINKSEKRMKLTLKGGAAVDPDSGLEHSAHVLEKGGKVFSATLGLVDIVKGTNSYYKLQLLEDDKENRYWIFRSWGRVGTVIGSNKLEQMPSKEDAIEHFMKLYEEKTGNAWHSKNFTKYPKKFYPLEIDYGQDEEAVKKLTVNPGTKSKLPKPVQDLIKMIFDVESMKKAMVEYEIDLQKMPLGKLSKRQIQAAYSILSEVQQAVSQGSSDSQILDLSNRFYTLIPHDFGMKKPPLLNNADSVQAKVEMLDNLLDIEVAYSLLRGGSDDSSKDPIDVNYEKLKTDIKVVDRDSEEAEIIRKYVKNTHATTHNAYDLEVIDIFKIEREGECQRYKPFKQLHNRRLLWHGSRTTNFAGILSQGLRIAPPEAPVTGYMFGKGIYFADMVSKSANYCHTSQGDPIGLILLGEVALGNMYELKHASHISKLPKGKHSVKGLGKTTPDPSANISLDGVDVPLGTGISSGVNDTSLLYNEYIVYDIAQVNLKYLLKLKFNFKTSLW

NC(=O)c1cccnc1 [Niacinamide]
inhibition of poly(ADP-ribose)polymerase: potent inhibitor
